How the values were obtained:
Format in all cases: in vivo
Culex pipiens pallens = assay: Test Example 6: larvae of Culex pipiens pallens in treated water; settings: 24 h, read-out: pest death rate
Method: A formulation of any one of the present compounds (7), (11), (12), (13), (17), (18t), (18c), (22), (24), (25t), (25c), (26t), (26c), (27), (29), (33), (34), (35), (36), (38), (40), (41), (43), (47), (49), (50) and (55) obtained according to Formulation Example 36 was diluted with water so that the active ingredient concentration was 500 ppm to obtain a test solution.
To 100 mL of ion-exchanged water, 0.7 ml of the test solution was added (active ingredient concentration: 3.5 ppm). Into the solution, 20 last-instar larvae of Culex pipiens pallens were released. One day after, the number of surviving Culex pipiens pallens was examined and the death rate of the pest was calculated.

[1] = test system: Haemaphysalis longicornis; assay: Test Example 7: treated filter paper pouch test on ticks; settings: filter paper treated with 100 mg/m^2, non-blood-sucking nymphal ticks, 10 ticks/group, two days after; for pest or weed control at 100 mg/m2: Haemaphysalis longicornis, 48 h, read-out: pest death rate
Method: Five milligrams of any one of the present compounds (4), (7), (18t), (22), (25t), (26t), (29), (30), (31), (32), (33), (34), (35), (40), (41), (42), (43), (44) and (55) was dissolved in 10 mL of acetone. One milliliter of the acetone solution was uniformly applied on one side of a filter paper (TOYO No. 2; 5×10 cm), so that the filter paper having a surface area of 50 cm^2 was treated with 100 mg/m^2 of the present compound. After drying, the filter paper was folded in two and its edges were clipped to make a pouch. Test ticks (non-blood-sucking nymphal ticks, Haemaphysalis longicornis, 10 ticks/group) were put into the pouch, and the pouch was sealed with clips. Two days after, the number of surviving ticks was examined and the death rate was calculated.

Blattalla germanica = assay: Test Example 5: filter paper/sucrose bait test on Blattalla germanica; settings: for pest or weed control at 500 ppm: 144 h, read-out: pest death rate
Method: A formulation of any one of the present compounds (4), (5), (7), (12), (13), (18t), (18c), (22), (25t), (25c), (26t), (26c), (29), (30), (31), (32), (33), (34), (40), (41), (43), (49) and (55) obtained according to Formulation Example 36 was diluted with water so that the active ingredient concentration was 500 ppm to obtain a test solution.
(§1) A filter paper having a diameter of 5.5 cm was spread on the bottom of a polyethylene cup having a diameter of 5.5 cm and 0.7 ml of the test solution was added dropwise onto the filter paper. As a bait 30 mg of sucrose was uniformly placed on the filter paper. Into the polyethylene cup, 2 male imagoes of Blattalla germanica were released and the cup was sealed with a lid. After 6 days, the number of surviving Blattalla germanica was examined and the death rate of the pest was calculated.

Musca domestica = assay: Test Example 4: filter paper/sucrose bait test on Musca domestica; settings: 24 h, read-out: pest death rate
Method: A formulation of any one of the present compounds (1), (4), (5), (7), (11), (12), (13), (18t), (18c), (19), (20), (21), (22), (24), (25t), (25c), (26t), (26c), (27), (29), (30), (31), (32), (33), (34), (35), (40), (41), (43), (49), (50) and (55) obtained according to Formulation Example 36 was diluted with water so that the active ingredient concentration was 500 ppm to obtain a test solution.
as §1, with “10 female” for “2 male”, “Musca domestica” for “Blattalla germanica”, “24 hours,” for “6 days,”

| Structure (SMILES) | pest or weed control at 3.5 ppm (Culex pipiens pallens) [%] | pest or weed control at 100 mg/m2 [1] [%] | pest or weed control at 500 ppm (Blattalla germanica) [%] | pest or weed control at 500 ppm (Musca domestica) [%] | pest death rate [1] [%] | pest death rate (Blattalla germanica; 500 ppm, 0.7 ml on filter paper, 2 male imagoes of Blattalla germanica, after 6 days) [%] |
| --- | --- | --- | --- | --- | --- | --- |
| C#CC1=CCC(CS(=O)(=O)CCC(F)(F)F)CC1 (stereo not drawn) | ≥ 95 | 90 | 100 | ≥ 90 |  |  |
| O=S(=O)(CCC(F)(F)F)CC1CCC(F)(F)CC1 [present compound (4), 1,1-difluoro-4-(3,3,3,-trifluoropropylsulfonylmethyl)cyclohexanone] |  | 90 | 100 | ≥ 90 |  |  |
| C#CC1(F)CCC(CS(=O)(=O)CCC(F)(F)F)CC1 (stereo not drawn) [present compound (7)] | ≥ 95 | 90 | 100 | ≥ 90 |  |  |
| C#CC1CCC(CS(=O)(=O)CCC(F)(F)F)CC1 (stereo not drawn) [present compound (18t), 1-ethynyl-4-(3,3,3-trifluoropropylsulfonylmethyl)cyclohexane] | ≥ 95 | 90 | 100 | ≥ 90 |  |  |
| C#CC1CCC(C[S+]([O-])CCC(F)(F)F)CC1 (stereo not drawn) [present compound (26t), 1-ethynyl-4-(3,3,3-trifluoropropylsulfinylmethyl)cyclohexane] | ≥ 95 | 90 | 100 | ≥ 90 |  |  |
| N#CC(C1CCC(F)(F)CC1)S(=O)(=O)CCC(F)(F)F (stereo not drawn) [present compound (29), 2-(4,4-difluorocyclohexyl)-2-(3,3,3-trifluoropropylsulfonyl)acetonitrile] | ≥ 95 | 90 | 100 | ≥ 90 |  |  |
| C#CC1(O)CCC(C(C#N)S(=O)(=O)CCC(F)(F)F)CC1 (stereo not drawn) [present compound (30), 2-(4-ethynyl-4-hydroxycyclohexyl)-2-(3,3,3-trifluoropropylsulfonyl)acetonitrile] |  | 90 | 100 | ≥ 90 |  |  |
| C#CC1(F)CCC(C(C#N)S(=O)(=O)CCC(F)(F)F)CC1 (stereo not drawn) [present compound (31), 2-(4-ethynyl-4-fluorocyclohexyl)-2-(3,3,3-trifluoropropylsulfonyl)acetonitrile] |  | 90 | 100 | ≥ 90 |  |  |
| C#CC1CCC=CC1C(C#N)S(=O)(=O)CCC(F)(F)F (stereo not drawn) [present compound (32), 2-(4-ethynyl-cyclohexen-3-yl)-2-(3,3,3-trifluoropropylsulfonyl)acetonitrile] |  | 90 | 100 | ≥ 90 |  |  |
| CON=C1CCC(C(C#N)S(=O)(=O)CCC(F)(F)F)CC1 (stereo not drawn) [present compound (33), 2-[4-(methoxyimino)cyclohexyl]-2-(3,3,3-trifluoropropylsulfonyl)acetonitrile] | ≥ 95 | 90 | 100 | ≥ 90 |  |  |
| N#CC(C1CCC(=NO)CC1)S(=O)(=O)CCC(F)(F)F (stereo not drawn) [present compound (34), 2-[4-(hydroxyimino)cyclohexyl]-2-(3,3,3-trifluoropropylsulfonyl)acetonitrile] | ≥ 95 | 90 | 100 | ≥ 90 |  |  |
| CCON=C1CCC(C(C#N)S(=O)(=O)CCC(F)(F)F)CC1 (stereo not drawn) [present compound (35), 2-[4-(ethoxyimino)cyclohexyl]-2-(3,3,3-trifluoropropylsufonyl)acetonitrile] |  |  |  |  | 90 |  |
| CON=C1CCC(C(C)(C#N)S(=O)(=O)CCC(F)(F)F)CC1 (stereo not drawn) [present compound (40), 2-[4-(methoxyimino)cyclohexyl]-2-(3,3,3-trifluoropropylsulfonyl)propionitrile] | ≥ 95 | 90 | 100 | ≥ 90 |  |  |
| CCC(C#N)(C1CCC(=NOC)CC1)S(=O)(=O)CCC(F)(F)F (stereo not drawn) [present compound (41), 2-[4-(methoxyimino)cyclohexyl]-2-(3,3,3-trifluoropropylsulfonyl)butyronitrile] | ≥ 95 | 90 | 100 | ≥ 90 |  |  |
| CCCC(C#N)(C1CCC(=NOC)CC1)S(=O)(=O)CCC(F)(F)F (stereo not drawn) [present compound (42), 2-[4-(methoxyimino)cyclohexyl]-2-(3,3,3-trifluoropropylsulfonyl)pentanenitrile] |  | 90 |  |  |  |  |
| C=CC(C)C(C#N)(C1CCC(=NOC)CC1)S(=O)(=O)CCC(F)(F)F (stereo not drawn) [present compound (43), 2-[4-(methoxyimino)cyclohexyl]-3-methyl-2-(3,3,3-trifluoropropylsufonyl)-4-pentenenitrile] |  |  |  |  | 90 | 100 |
| C#CC(C)C(C#N)(C1CCC(=NOC)CC1)S(=O)(=O)CCC(F)(F)F (stereo not drawn) [present compound (44), 2-[4-(methoxyimino)cyclohexyl]-3-methyl-2-(3,3,3-trifluoropropylsulfonyl)-4-pentynenitrile] |  | 90 |  |  |  |  |
| CC1CCC(C(C#N)S(=O)(=O)CCC(F)(F)F)CC1 (stereo not drawn) [present compound (49), 2-(4-methylcyclohexyl)-2-(3,3,3-trifluoropropylsulfonyl)acetonitrile] | ≥ 95 |  | 100 | ≥ 90 |  |  |
| CON=C1CCC(C(C#N)S(=O)(=O)CCC(F)(F)C(F)(F)F)CC1 (stereo not drawn) [present compound (55), 2-[4-(methoxyimino)cyclohexyl]-2-(3,3,4,4,4-pentafluorobutylsulfonyl)acetonitrile] | ≥ 95 | 90 | 100 | ≥ 90 |  |  |
